Consider 3 compounds from ChEMBL document CHEMBL1158093, “Isolation, structure elucidation, and biological evaluation of 15-amido-3-demethoxy-2alpha,3alpha-methylenedioxyerythroculine, a new alkaloid from Hyperbaena valida” (J Nat Prod, 2006).

Each structure is given as a SMILES string. Calls of active or inactive are those of the source. No cut-off for these calls is given here.

Assay [1] has as its target Neuronal acetylcholine receptor; alpha3/beta4 (Rattus norvegicus) (UniProt P04757+P12392). The experiment in a line: Agonist activity at rat alpha3beta4 nicotinic receptor expressed in KXalpha-3-beta-4R2 cells assessed as nicotine-induced calcium fluorescence. It is filed as functional, cell-based.
For assay [2], the target named is T1, Neuronal acetylcholine receptor; alpha3/beta4 (Rattus norvegicus, UniProt P04757+P12392). The experiment in a line: Antagonist activity at rat alpha3beta4 nicotinic receptor expressed in KXalpha-3-beta-4R2 cells assessed as nicotine-induced calcium fluorescence. It is filed as functional, cell-based.
In assay [3] the target is T1, Neuronal acetylcholine receptor; alpha3/beta4. The experiment in a line: Activity at rat alpha3beta4 nicotinic receptor expressed in KXalpha-3-beta-4R2 cells assessed as nicotine-induced 86Rb+ efflux. The class given is cell-based.

T1 sequence (P04757 whole entry): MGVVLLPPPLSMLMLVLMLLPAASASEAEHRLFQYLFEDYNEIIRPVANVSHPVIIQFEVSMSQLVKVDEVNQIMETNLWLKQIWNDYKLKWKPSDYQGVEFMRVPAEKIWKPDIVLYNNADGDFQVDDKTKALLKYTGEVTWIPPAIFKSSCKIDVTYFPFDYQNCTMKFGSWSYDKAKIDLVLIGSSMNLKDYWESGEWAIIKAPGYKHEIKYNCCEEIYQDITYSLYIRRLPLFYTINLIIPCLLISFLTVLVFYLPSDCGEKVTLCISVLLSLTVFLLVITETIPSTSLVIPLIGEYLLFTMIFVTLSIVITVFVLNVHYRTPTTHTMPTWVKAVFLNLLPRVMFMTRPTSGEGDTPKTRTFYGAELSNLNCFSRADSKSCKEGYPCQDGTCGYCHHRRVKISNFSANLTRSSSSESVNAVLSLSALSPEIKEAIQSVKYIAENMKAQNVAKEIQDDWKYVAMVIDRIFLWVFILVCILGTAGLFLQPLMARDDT
T1 sequence (P12392 whole entry): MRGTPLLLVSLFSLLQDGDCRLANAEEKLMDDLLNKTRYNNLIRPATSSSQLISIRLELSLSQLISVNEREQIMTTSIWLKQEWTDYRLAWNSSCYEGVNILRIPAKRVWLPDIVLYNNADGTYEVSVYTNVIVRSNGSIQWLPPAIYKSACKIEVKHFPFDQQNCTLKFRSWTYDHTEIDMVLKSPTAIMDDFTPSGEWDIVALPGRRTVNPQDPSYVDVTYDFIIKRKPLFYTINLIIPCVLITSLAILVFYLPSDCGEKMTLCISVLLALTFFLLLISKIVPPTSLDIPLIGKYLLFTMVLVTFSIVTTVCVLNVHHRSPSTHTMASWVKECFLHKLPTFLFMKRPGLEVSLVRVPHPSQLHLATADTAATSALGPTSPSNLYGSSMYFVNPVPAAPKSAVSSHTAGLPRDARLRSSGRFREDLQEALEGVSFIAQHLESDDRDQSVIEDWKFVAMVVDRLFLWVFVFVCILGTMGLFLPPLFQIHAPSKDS

`COc1cc2c(cc1C(N)=O)[C@]13C[C@H]4OCO[C@H]4C=C1CCN3CC2`: the outcome in assay [1] was inactive. Besides, the half-inhibitory concentration (IC50) (as a rule, the concentration at which inhibition is half-maximal) in assay [2] was 94 µM.

On to `CO[C@H]1CC=C2CCN3CCC4=C(CC(=O)OC4)[C@]23C1`, for which the half-inhibitory concentration (IC50) in assay [3] was 100 µM.

As for `COC(=O)c1cc2c(cc1OC)CCN1CCC3=C[C@@H]4OCO[C@@H]4C[C@]321`, the result in assay [1] was inactive. For the same compound, in assay [2], the concentration for half-maximal inhibition (IC50) was 77 µM.
